Assay results reported in patent publication US12077503B2, “Substituted cyclic amides and their use as herbicides” (FMC CORPORATION, priority 2015, dated 2024).

Columns and labels:
Format in all cases: in vivo
[1] = tested on: ivy-leaved morning glory (Ipomoea hederacea); experiment: Test G Post-Emergence Protocol; details: Ipomoea, post-emergence, 312 h, read-out: Morningglory, Ivy-leaved damage rating; for pest or weed control at 15.625 g/ha: 15.625 g ai/ha, evaluated after 13 days (100=total damage to plant; 0=no damage to plant); for pest or weed control at 62.5 g/ha: 62.5 g ai/ha; for pest or weed control at 62.5 g/ha / pest or weed control at 250 g/ha: evaluated after 13 days, 100=total damage to plant, 0=no damage to plant; for pest or weed control at 250 g/ha: 250 g ai/ha
Outline: (§1)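 Foliar application was made 8 days after sowing, using an aqueous spray of the active in acetone/water (50:50) with 0.5% Tween 20, at doses of 15.625, 62.5 or 250 g/ha. Injury was assessed 13 days later, where 100 meant the plant was fully damaged.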

[2] = tested on: giant foxtail (Setaria faberi); experiment: Test G Post-Emergence Protocol; details: Setaria faberi, post-emergence, 312 h, read-out: Foxtail, Giant damage rating; for pest or weed control at 15.625 g/ha: 15.625 g ai/ha, evaluated after 13 days (100=total damage to plant; 0=no damage to plant); for pest or weed control at 62.5 g/ha: 62.5 g ai/ha; for pest or weed control at 62.5 g/ha / pest or weed control at 250 g/ha: evaluated after 13 days, 100=total damage to plant, 0=no damage to plant; for pest or weed control at 250 g/ha: 250 g ai/ha
Outline: as §1

[3] = tested on: barnyardgrass (Echinochloa crus-galli); experiment: Test G Post-Emergence Protocol; details: Echinochloa crus-galli, post-emergence, 312 h, read-out: Barnyardgrass damage rating; for pest or weed control at 15.625 g/ha: 15.625 g ai/ha, evaluated after 13 days (100=total damage to plant; 0=no damage to plant); for pest or weed control at 62.5 g/ha: 62.5 g ai/ha; for pest or weed control at 62.5 g/ha / pest or weed control at 250 g/ha: evaluated after 13 days, 100=total damage to plant, 0=no damage to plant; for pest or weed control at 250 g/ha: 250 g ai/ha
Outline: as §1

[4] = tested on: velvetleaf (Abutilon theophrasti); experiment: Test G Post-Emergence Protocol; details: Abutilon theophrasti, post-emergence, 312 h, read-out: Velvetleaf damage rating; for pest or weed control at 15.625 g/ha: 15.625 g ai/ha, evaluated after 13 days (100=total damage to plant; 0=no damage to plant); for pest or weed control at 62.5 g/ha: 62.5 g ai/ha; for pest or weed control at 62.5 g/ha / pest or weed control at 250 g/ha: evaluated after 13 days, 100=total damage to plant, 0=no damage to plant; for pest or weed control at 250 g/ha: 250 g ai/ha
Outline: as §1

[5] = tested on: redroot pigweed (Amaranthus retroflexus); experiment: Test G Post-Emergence Protocol; details: Amaranthus retroflexus, post-emergence, 312 h, read-out: Pigweed, Redroot damage rating; for pest or weed control at 15.625 g/ha: 15.625 g ai/ha, evaluated after 13 days (100=total damage to plant; 0=no damage to plant); for pest or weed control at 62.5 g/ha: 62.5 g ai/ha; for pest or weed control at 62.5 g/ha / pest or weed control at 250 g/ha: evaluated after 13 days, 100=total damage to plant, 0=no damage to plant; for pest or weed control at 250 g/ha: 250 g ai/ha
Outline: as §1

corn (Zea mays) [6] = experiment: Test G Post-Emergence Protocol; details: Zea mays, post-emergence, 312 h, read-out: Corn damage rating; for plant injury at 15.625 g/ha: 15.625 g ai/ha, evaluated after 13 days (100=total damage to plant; 0=no damage to plant); for plant injury at 62.5 g/ha: 62.5 g ai/ha; for plant injury at 62.5 g/ha / plant injury at 250 g/ha: evaluated after 13 days, 100=total damage to plant, 0=no damage to plant; for plant injury at 250 g/ha: 250 g ai/ha
Outline: as §1

[7] = tested on: ivy-leaved morning glory (Ipomoea hederacea); experiment: Test G Pre-Emergence Protocol; details: Ipomoea, pre-emergence, 312 h, evaluated after 13 days; for pest or weed control at 15.625 g/ha: 15.625 g ai/ha; for pest or weed control at 15.625 g/ha / pest or weed control at 250 g/ha: read-out: Morningglory, Ivy-leaved damage rating (100=total damage to plant; 0=no damage to plant); for pest or weed control at 62.5 g/ha: 62.5 g ai/ha, 100=total damage to plant, 0=no damage to plant, read-out: Morningglory, Ivy-leaved damage rating; for pest or weed control at 250 g/ha: 250 g ai/ha
Outline: (§2)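 Pots of seeds in standard soil were grown for one day in a glasshouse (24/16 °C day/night, 14 h light, 65% humidity), then sprayed with compound in acetone/water 50:50 with 0.5% Tween 20 at 15.625, 62.5 or 250 g/ha. Damage was scored after 13 days on a 0 (none) to 100 (total) scale.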

[8] = tested on: giant foxtail (Setaria faberi); experiment: Test G Pre-Emergence Protocol; details: Setaria faberi, pre-emergence, 312 h, evaluated after 13 days; for pest or weed control at 15.625 g/ha: 15.625 g ai/ha; for pest or weed control at 15.625 g/ha / pest or weed control at 250 g/ha: read-out: Foxtail, Giant damage rating (100=total damage to plant; 0=no damage to plant); for pest or weed control at 62.5 g/ha: 62.5 g ai/ha, 100=total damage to plant, 0=no damage to plant, read-out: Foxtail, Giant damage rating; for pest or weed control at 250 g/ha: 250 g ai/ha
Outline: as §2

[9] = tested on: barnyardgrass (Echinochloa crus-galli); experiment: Test G Pre-Emergence Protocol; details: Echinochloa crus-galli, pre-emergence, 312 h, evaluated after 13 days; for pest or weed control at 15.625 g/ha: 15.625 g ai/ha; for pest or weed control at 15.625 g/ha / pest or weed control at 250 g/ha: read-out: Barnyardgrass damage rating (100=total damage to plant; 0=no damage to plant); for pest or weed control at 62.5 g/ha: 62.5 g ai/ha, 100=total damage to plant, 0=no damage to plant, read-out: Barnyardgrass damage rating; for pest or weed control at 250 g/ha: 250 g ai/ha
Outline: as §2

[10] = tested on: velvetleaf (Abutilon theophrasti); experiment: Test G Pre-Emergence Protocol; details: Abutilon theophrasti, pre-emergence, 312 h, evaluated after 13 days; for pest or weed control at 15.625 g/ha: 15.625 g ai/ha; for pest or weed control at 15.625 g/ha / pest or weed control at 250 g/ha: read-out: Velvetleaf damage rating (100=total damage to plant; 0=no damage to plant); for pest or weed control at 62.5 g/ha: 62.5 g ai/ha, 100=total damage to plant, 0=no damage to plant, read-out: Velvetleaf damage rating; for pest or weed control at 250 g/ha: 250 g ai/ha
Outline: as §2

[11] = tested on: redroot pigweed (Amaranthus retroflexus); experiment: Test G Pre-Emergence Protocol; details: Amaranthus retroflexus, pre-emergence, 312 h, evaluated after 13 days; for pest or weed control at 15.625 g/ha: 15.625 g ai/ha; for pest or weed control at 15.625 g/ha / pest or weed control at 250 g/ha: read-out: Pigweed, Redroot damage rating (100=total damage to plant; 0=no damage to plant); for pest or weed control at 62.5 g/ha: 62.5 g ai/ha, 100=total damage to plant, 0=no damage to plant, read-out: Pigweed, Redroot damage rating; for pest or weed control at 250 g/ha: 250 g ai/ha
Outline: as §2

corn (Zea mays) [12] = experiment: Test G Pre-Emergence Protocol; details: Zea mays, pre-emergence, 312 h, evaluated after 13 days; for plant injury at 15.625 g/ha: 15.625 g ai/ha; for plant injury at 15.625 g/ha / plant injury at 250 g/ha: read-out: Corn damage rating (100=total damage to plant; 0=no damage to plant); for plant injury at 62.5 g/ha: 62.5 g ai/ha, 100=total damage to plant, 0=no damage to plant, read-out: Corn damage rating; for plant injury at 250 g/ha: 250 g ai/ha
Outline: as §2

Structure (SMILES)	pest or weed control at 15.625 g/ha [1] [%]	pest or weed control at 62.5 g/ha [1] [%]	pest or weed control at 250 g/ha [1] [%]	pest or weed control at 15.625 g/ha [2] [%]	pest or weed control at 62.5 g/ha [2] [%]	pest or weed control at 250 g/ha [2] [%]	pest or weed control at 15.625 g/ha [3] [%]	pest or weed control at 62.5 g/ha [3] [%]	pest or weed control at 250 g/ha [3] [%]	pest or weed control at 15.625 g/ha [4] [%]	pest or weed control at 62.5 g/ha [4] [%]	pest or weed control at 250 g/ha [4] [%]	pest or weed control at 15.625 g/ha [5] [%]	pest or weed control at 62.5 g/ha [5] [%]	pest or weed control at 250 g/ha [5] [%]	plant injury at 15.625 g/ha (corn (Zea mays) [6]) [%]	plant injury at 62.5 g/ha (corn (Zea mays) [6]) [%]	plant injury at 250 g/ha (corn (Zea mays) [6]) [%]	pest or weed control at 15.625 g/ha [7] [%]	pest or weed control at 62.5 g/ha [7] [%]	also measured
COCCOc1cc([C@@H]2CN(C)C(=O)[C@H]2C(=O)Nc2cccc(F)c2C)ccc1C (racemic) [Compound 1790]	20	20	40	70	80	80	50	70	70	0	20	30	0	0	0	50	70	80	0	20	pest or weed control at 250 g/ha [7]: 70%; pest or weed control at 15.625 g/ha [8]: 70%; pest or weed control at 62.5 g/ha [8]: 70%; pest or weed control at 250 g/ha [8]: 90%; pest or weed control at 15.625 g/ha [9]: 40%; pest or weed control at 62.5 g/ha [9]: 70%; pest or weed control at 250 g/ha [9]: 90%; pest or weed control at 15.625 g/ha [10]: 0%; pest or weed control at 62.5 g/ha [10]: 0%; pest or weed control at 250 g/ha [10]: 40%; pest or weed control at 15.625 g/ha [11]: 0%; pest or weed control at 62.5 g/ha [11]: 0%; pest or weed control at 250 g/ha [11]: 10%; plant injury at 15.625 g/ha (corn (Zea mays) [12]): 20%; plant injury at 62.5 g/ha (corn (Zea mays) [12]): 70%; plant injury at 250 g/ha (corn (Zea mays) [12]): 90%
CON1C[C@H](c2ccc(C(F)(F)F)cc2)[C@@H](C(=O)Nc2cccc(F)c2F)C1=O (racemic) [Compound 1836]	20	20	40	50	70	70	0	70	80	10	20	50	20	60	70	0	10	70	10	20	pest or weed control at 250 g/ha [7]: 30%; pest or weed control at 15.625 g/ha [8]: 50%; pest or weed control at 62.5 g/ha [8]: 80%; pest or weed control at 250 g/ha [8]: 90%; pest or weed control at 15.625 g/ha [9]: 10%; pest or weed control at 62.5 g/ha [9]: 70%; pest or weed control at 250 g/ha [9]: 80%; pest or weed control at 15.625 g/ha [10]: 0%; pest or weed control at 62.5 g/ha [10]: 0%; pest or weed control at 250 g/ha [10]: 30%; pest or weed control at 15.625 g/ha [11]: 0%; pest or weed control at 62.5 g/ha [11]: 50%; pest or weed control at 250 g/ha [11]: 50%; plant injury at 15.625 g/ha (corn (Zea mays) [12]): 10%; plant injury at 62.5 g/ha (corn (Zea mays) [12]): 10%; plant injury at 250 g/ha (corn (Zea mays) [12]): 80%
Cc1nc(Cl)ccc1NC(=O)[C@H]1C(=O)N(C)C[C@@H]1c1ccc(C(F)(F)F)cc1 (racemic) [Compound 1825]	0	0	20	0	0	50	0	0	0	0	0	20	0	0	10	0	0	10	0	0	pest or weed control at 250 g/ha [7]: 0%; pest or weed control at 15.625 g/ha [8]: 0%; pest or weed control at 62.5 g/ha [8]: 20%; pest or weed control at 250 g/ha [8]: 70%; pest or weed control at 15.625 g/ha [9]: 0%; pest or weed control at 62.5 g/ha [9]: 0%; pest or weed control at 250 g/ha [9]: 0%; pest or weed control at 15.625 g/ha [10]: 0%; pest or weed control at 62.5 g/ha [10]: 0%; pest or weed control at 250 g/ha [10]: 0%; pest or weed control at 15.625 g/ha [11]: 0%; pest or weed control at 62.5 g/ha [11]: 0%; pest or weed control at 250 g/ha [11]: 0%; plant injury at 15.625 g/ha (corn (Zea mays) [12]): 0%; plant injury at 62.5 g/ha (corn (Zea mays) [12]): 0%; plant injury at 250 g/ha (corn (Zea mays) [12]): 0%
